Assay results as given in US20240425568A1, “COMBINATION THERAPIES FOR HIV INFECTIONS AND USES THEREOF” (VIIV HEALTHCARE COMPANY, priority 2021, published 2024).
Read-outs that look alike come from different tables or passages of the source.

What was measured:
[1] = target: T1, cell surface expressed HIV-1 envelope (Human immunodeficiency virus type 1 group M subtype B, UniProt P04578); format: cell-based, HIV-1 lab strain HxB2; conditions: for overall percentage of cells that contained bound bnAbs: 0.5 uM temsavir compared to DMSO only treated cells, FIG. 2; for binding of bnAb to the cell surface of CD4+/p24+ cells (mean fluorescent intensity, MFI): HIV infected cells treated with 0.5 uM temsavir for 24 hr, compared to DMSO only treated cells, bnAb 50 ug/mL to 0.01 ug/mL, FIG. 1
T1 construct: cell surface expressed HIV-1 envelope from a productive infection of human CD4^+ T cells; endogenous in cells; host or cells: primary human CD4+ T cells (from healthy-donor PBMCs) productively infected with HIV-1 HxB2 virus
Experimental: Preparation and HIV-1 infection of target cells: Peripheral blood mononuclear cells (PBMCs) were obtained by continuous-flow leukapheresis from healthy donors, isolated by ficoll-hypaque density gradient centrifugation and cryopreserved in the vapor phase of liquid nitrogen. PBMCs were rapidly thawed to room temperature in a 37° C. water bath and cultured in assay medium (RPMI 1640 media supplemented with 10% fetal calf serum plus 30 U/mL recombinant IL-2) containing 2 ug/mL phytohemagglutinin-P (Sigma) for three days in a humidified incubator at 37° C., 5% CO2. CD4^+ T cells were isolated by negative selection (Stemcell Technologies), washed twice and resuspended with assay medium at a final density of 1-2×10^6 cells/mL and incubated at 37° C., 5% CO2 overnight. Cells were centrifuged at 500×g for 10 minutes, resuspended with assay medium at 5×10^6 cell/mL and 200 uL (1×10^6 total cells) were distributed to 24-well tissue culture treated plates. An HIV-1 lab strain, HxB2 virus, previously propagated in human PBMC cells, was diluted with assay medium containing 50 ug/mL DEAE-dextran and 200 uL was added to the cells in the 24-well plates. The plates were centrifuged at 1,200×g for 1.5 hours and the infected cells were collected and pooled in a 50 ml conical tube. The infected cells were washed twice and resuspended in assay medium to a final density of 1-2×10^6 cells/mL and incubated at 37° C., 5% CO2 for three days.
Treatment of HIV-infected target cells with temsavir and N6 bnAbs: HIV infected cells were centrifuged at 500×g for 10 minutes, resuspended with assay medium at 3×10^6 cell/mL and 50 uL (150,000 total cells) were distributed to 96-well, U-bottom tissue-culture treated plates. […] The antibodies were eluted and diluted in buffer consisting of 150 mM Arginine, 50 mM Sodium acetate, pH 5.5, 150 mM NaCl) were serially titrated in assay medium and added to the temsavir-treated cells for a final concentration range of 50 ug/mL to 0.01 ug/mL. The plates were incubated at 37° C., 5% CO2 for 30 minutes.
Flow cytometry: The assay plates were removed from the incubator and the cells were pelleted by centrifugation at 500×g for 2 minutes at 25° C. The cells were washed twice by mixing with 200 μL of ice cold wash buffer (phosphate buffered saline containing 2% fetal calf serum) with centrifugation at 500×g for 2 minutes at 25° C. for each wash cycle. […] The stained cells were washed twice with wash buffer as indicated above, acquired on a Fortessa cytometer (BD Biosciences) and the data were analyzed by mean fluorescent intensity (MFI) using FlowJo v10.8 software (Tree Star).

[2] = tested on: HIV infected CD4+ T cells; assay: ADCC assay: NK-directed killing of HIV infected CD4+ T cells; format: cell-based, human (infected with HIV-1 lab strain IIIB); conditions: for NK-directed killing of HIV infected cells mediated by CD4 binding site bnAbs (ADCC): temsavir 50 nM-0.08 nM for 16-24 hours, antibodies 5 ug/mL, Raltegravir in medium
Experimental: Isolation and preparation of target and effector cells: Peripheral blood mononuclear cells (PBMCs) were obtained by continuous-flow leukapheresis from healthy donors, isolated by ficoll-hypaque density gradient centrifugation and cryopreserved in the vapor phase of liquid nitrogen. PBMCs were rapidly thawed to room temperature in a 37° C. water bath and resuspended in RPMI 1640 media supplemented with 10% fetal calf serum. For the target cells, CD4+T lymphocytes were purified using immunomagnetic negative selection beads as per the manufacturer's instructions (StemCell Technologies). The cells were activated with phytohemagglutinin-P (Sigma; PHA-P; 5 μg/mL) for 72 hours at 37° C., 5% CO2 and then maintained under the same incubation conditions in RPMI 1640 medium supplemented with 10% fetal calf serum plus 50 U/mL recombinant IL-2. Natural Killer (NK) effector cells were purified from autologous PBMCs using immunomagnetic negative selection beads as per the manufacturer's instructions (StemCell Technologies). The cells were maintained in RPMI 1640 medium supplemented with 10% fetal calf serum and incubated at 37° C., 5% CO2 for 24 hr prior to ADCC assay.
Infection of target cells: HIV-1 lab strain IIIB was used to infect the activated CD4+T lymphocytes by spin infection at 1200×g for 1.5 hours in 24-well plates at 25° C. in the presence of 25 μg/mL DEAE-Dextran. The infected cells were collected, washed and resuspended in RPMI 1640 medium supplemented with 10% fetal calf serum plus 50 U/mL recombinant IL-2 and incubated at 37° C., 5% CO2 for 3 days until infection rates reached above 20%.
ADCC assay: HIV infected CD4^+ T cells (targets) were incubated with cell proliferation dye as per the manufacturer's instructions (eFluor670; eBioscience) and plated in 96-well U-bottom plates. Temsavir was dissolved in DMSO and diluted into RPMI 1640 medium supplemented with 10% fetal calf and serially titrated in the same medium in 5-fold increments for a dose range of 50 nM-0.08 nM. […]
The cells were then stained intracellularly for HIV-1 p24, using the Cytofix/Cytoperm Fixation/Permeabilization Kit (BD Biosciences) with subsequent addition of anti-p24 mAb (FITC anti-p24, clone KC57; Beckman Coulter/Immunotech; 1:200 final concentration) for 20-30 minutes at room temperature. […] The percentage of specific killing was calculated with the following formula: (% of p24^+ cells in Targets plus Effectors)−(% of p24^+ cells in Targets plus Effectors plus Abs)/(% of p24^+ cells in Targets alone without antibody or temsavir) by gating on live target cells.

| Compound | overall percentage of cells that contained bound bnAbs [1] | overall percentage of cells that contained bound bnAbs ([1]; listed as Temsavir) | binding of bnAb to the cell surface of CD4+/p24+ cells (mean fluorescent intensity, MFI) [1] | cell death of HIV infected primary cells in the absence of effector cells ([2]; effector cells eliminated from the assay, FIG. 4) | NK-directed killing of HIV infected cells mediated by CD4 binding site bnAbs (ADCC) ([2]; NK effector-to-target ratio 3:1, 24 hours, FIG. 3) | NK-directed killing of HIV infected cells mediated by CD4 binding site bnAbs (ADCC) ([2]; NK effector-to-target ratio 3:1, 24 hours, FIG. 3, listed as Temsavir) | magnitude of killing (maximum), percentage of specific killing ([2]; with temsavir titration 50 nM-0.08 nM, antibody 5 ug/mL, NK effector-to-target ratio 3:1, 24 hours, FIG. 3) [%] |
| --- | --- | --- | --- | --- | --- | --- | --- |
| COc1cnc(-n2cnc(C)n2)c2[nH]cc(C(=O)C(=O)N3CCN(C(=O)c4ccccc4)CC3)c12 [temsavir, 1-(4-benzoylpiperazin-1-yl)-2-[4-methoxy-7-(3-methyl-1,2,4-triazol-1-yl)-1H-pyrrolo[2,3-c]pyridin-3-yl]ethane-1,2-dione] | significant increase | enhancement | enhancement | does not lead to cell death | Dose dependent temsavir enhancement | enhances | – |
| N6-LAGA: Fc binding-reduced N6 antibody, constant domain comprising L235A and G237A mutations; HC SEQ ID NO: 13 | – | – | substantial increase | – | – | – | 25 |
